# pKi: −log10 of the molar value.
# Columns and labels:
# coronary A2 receptors = details: cited from earlier work
# [1] = system: A2 receptors of rat pheochromocytoma (PC12) cells; assay: Antagonism of NECA-induced stimulation of adenylate cyclase activity of PC12 cell membranes; type: biochemical; details: NECA-stimulated adenylate cyclase, result in words
# Method: (§1) Human platelet, rat pheochromocytoma (PC12) cell, rat fat cell and rat cerebral cortex membranes were prepared as described (4,5,6). Adenylate cyclase activity and binding [^3 H]PIA to cerebral cortex membranes were determined essentially as described (4,5,6). KB values for the compounds were determined as described (4). […] EC50 and IC50 values for the agonists were obtained from the concentration-response curves by linear regression after logit-log transformation. KB values of the antagonists were calculated using the Schild equation KB =C/(CR-1), where C denotes the concentration of the competitor and CR the ratio of the EC50 and IC50 values in the presence and absence, respectively, of the competitor. IC50 of the compounds for inhibition of [^3 H]PIA binding to cerebral cortex membranes were transformed into Ki values as described (6).
# [2] = system: adenosine receptor in human fibroblast cell line; details: cited from earlier work
# [3] = molecular target: T1, A1 receptors of rat fat cells (Rattus norvegicus, UniProt P25099); assay: Antagonism of R-PIA-induced inhibition of rat fat cell adenylate cyclase activity; type: biochemical; details: rat fat cell membranes, result in words
# T1 sequence (P25099 1-326): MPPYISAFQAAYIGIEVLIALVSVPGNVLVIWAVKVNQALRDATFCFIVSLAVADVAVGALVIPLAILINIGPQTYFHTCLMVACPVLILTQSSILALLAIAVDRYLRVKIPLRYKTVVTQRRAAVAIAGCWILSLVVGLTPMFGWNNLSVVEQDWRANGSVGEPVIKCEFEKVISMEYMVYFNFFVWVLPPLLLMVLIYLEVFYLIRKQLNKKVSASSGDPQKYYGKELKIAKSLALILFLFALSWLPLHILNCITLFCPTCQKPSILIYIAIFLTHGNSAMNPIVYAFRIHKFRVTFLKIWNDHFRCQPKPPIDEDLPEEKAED
# Method: as §1
# [4] = molecular target: T2, A2 receptors of human platelets (Homo sapiens, UniProt P29274); assay: Antagonism of NECA-induced stimulation of adenylate cyclase activity of human platelet membranes; type: biochemical; details: for antagonist potency at platelet A2 receptor: human platelet membranes, NECA-stimulated adenylate cyclase, result in words
# T2 sequence (P29274 whole entry): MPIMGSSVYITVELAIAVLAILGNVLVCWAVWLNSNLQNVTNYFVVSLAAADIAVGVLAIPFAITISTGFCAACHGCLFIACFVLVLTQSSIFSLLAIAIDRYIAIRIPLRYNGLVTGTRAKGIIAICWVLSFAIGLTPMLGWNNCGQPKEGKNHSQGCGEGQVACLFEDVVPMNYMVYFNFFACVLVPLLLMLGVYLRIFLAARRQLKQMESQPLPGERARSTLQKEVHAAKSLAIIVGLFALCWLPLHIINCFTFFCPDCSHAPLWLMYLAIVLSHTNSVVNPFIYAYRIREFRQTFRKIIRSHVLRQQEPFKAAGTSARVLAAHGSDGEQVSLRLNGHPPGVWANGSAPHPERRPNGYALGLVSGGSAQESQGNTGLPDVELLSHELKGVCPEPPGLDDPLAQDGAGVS
# Method: as §1
# In these cells, A2 receptor-mediated stimulation of adenylate cyclase results in an inhibition of aggregation (5,7).
# A1 receptors = molecular target: T3, A1 receptors (Rattus norvegicus, UniProt P25099); assay: Activity at A1 adenosine receptors (overall, fat cells and brain membranes); type: biochemical; details: discussion, fat cell and brain data
# T3 sequence (P25099 1-326): T1 sequence (P25099 1-326)
# Method: as §1
# [5] = system: A1 and A2 adenosine receptors; assay: Activity at adenosine receptors, A1 versus A2 selectivity (overall); type: biochemical; details: in words
# Method: as §1
# [6] = molecular target: T4, A1 adenosine receptor (guinea pig atrium) (Cavia porcellus, UniProt P47745); assay: Antagonism of adenosine agonists in isolated guinea pig left atrium (force of contraction); details: guinea pig atria, result in words
# T4 construct: The left atria from male guinea pigs were isolated; from tissue; host or cells: left atria of male guinea pigs
# T4 sequence (P47745 1-326): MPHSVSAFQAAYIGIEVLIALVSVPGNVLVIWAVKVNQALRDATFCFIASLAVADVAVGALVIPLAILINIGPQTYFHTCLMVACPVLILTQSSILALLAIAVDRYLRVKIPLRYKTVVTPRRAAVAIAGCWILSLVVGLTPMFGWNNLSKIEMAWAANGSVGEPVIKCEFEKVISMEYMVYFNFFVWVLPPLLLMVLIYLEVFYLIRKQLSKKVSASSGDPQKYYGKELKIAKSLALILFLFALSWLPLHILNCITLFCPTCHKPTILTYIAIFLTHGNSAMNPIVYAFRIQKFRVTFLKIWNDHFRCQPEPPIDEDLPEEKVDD
# Method: The left atria from male guinea pigs were isolated, suspended between two punctate electrodes, and placed in a 20 ml organ bath that contained Krebs-Hensileit solution that was continuously gassed with 95% O2 + 5% CO2 and maintained at 31° C. The resting tension was one gram. Theatria were stimulated electrically at 1 hz, 1 ms duration pulses at supramaximal voltage. The force of contraction was recorded isometrically.
# (§2) The ability of the compounds to antagonize the effects of agonists was analyzed using modified Schild plots.
# [7] = system: A2 adenosine receptor (guinea pig taenia caecum); assay: Antagonism of adenosine agonists in isolated guinea pig taenia caecum (contractile tone)
# Method: Taenia from the guinea pig caecum were cut into lengths of 1.5-2 cm. The tissues were suspended in a 20 ml organ bath containing de Jalon's solution that was gassed with 95% O2 + 5% CO2 and maintained at 31° C. The resting tension was 1.5 g. The contractile response was measured isotonically.
# as §2
# [8] = molecular target: T5, A1 receptors of rat cerebral cortex membranes (Rattus norvegicus, UniProt P25099); assay: Inhibition of [3H]PIA binding to rat cerebral cortex membranes
# T5 sequence (P25099 1-326): T1 sequence (P25099 1-326)
# Method: as §1
# A2 receptors = details: literature; cited from earlier work
# [9] = molecular target: T2, A2 receptors of human platelets; details: cited from earlier work
# A1 adenosine receptors = details: literature; cited from earlier work
# [10] = system: A2 receptors of PC12 cells; details: cited from earlier work
compound,measurement,setting,value
OC[C@H]1O[C@@H](n2cnc3c(Oc4ccccc4)ncnc32)[C@H](O)[C@@H]1O [6-phenoxypurine riboside],activity at coronary A2 receptors,coronary A2 receptors,inactive or nearly so
"Nc1ncnc2nc[nH]c12 [Example 1, Adenine, reference compound]",antagonist potency at A2 receptor of PC12 cells,[1],very weak antagonist
same,"specific, competitive antagonism of cyclic AMP accumulation","[2]; adenosine-induced, human fibroblast cell line","specific, competitive antagonist"
same,pKi,"[2]; competitive antagonism of adenosine-induced cyclic AMP accumulation, human fibroblast cell line",3.70
same,antagonist potency at A1 receptors of fat cells,[3],does not affect R-PIA-induced inhibition of fat cell adenylate cyclase activity
same,antagonist potency at platelet A2 receptor,[4],very weak antagonist
same,effect on basal adenylate cyclase activity,"[4]; human platelets, data not shown",does not affect basal adenylate cyclase activity
"Cn1cnc2c(N)ncnc21 [Example 2, 9-Methyladenine, reference compound]",potency increase by methylation of adenine at the 9-position,[2]; relative to adenine,about 4 fold
same,antagonist potency at A1 receptors of fat cells,[3],antagonizes the effect of R-PIA
same,antagonist potency at platelet A2 receptor,[4],more potent than the adenine itself
"Cn1cnc2c(NC3CCCC3)ncnc21 [Example 4, N^6 -Cyclopentyl-9-MA]","activity at A1 receptors, in words",A1 receptors,most potent of N^6 -substituted 9-methyladenines at A1 receptors
same,potency at adenosine receptors (subtype not stated),[5],more potent than 9-methyladenine
same,receptor selectivity A1 versus A2,[5]; listed as N^6 -Cyclopentyl,selective for A1 receptors
same,receptor selectivity A1 versus A2,[5]; listed as cyclopentyl-,selective for receptors
same,antagonism of adenosine agonists in atria,[6],competitive antagonists
same,antagonist potency at A1 receptors of fat cells,[3],more potent than the parent compound 9-methyladenine
same,antagonism of adenosine agonists in taenia caecum,[7]; guinea pig taenia caecum relaxation,did not competitively antagonize the effects of adenosine agonists
same,sensitization of the tissue,"[7]; guinea pig taenia caecum, high concentrations",some sensitization of the tissue
same,antagonist potency at platelet A2 receptor,[4],more potent than 9-methyladenine itself
same,potency at platelet A2 receptor relative to PC12 A2 receptor,[4]; human platelets versus rat PC12 cells,more potent at the platelet A2 receptor than at the PC12 A2 receptor
same,"inhibition of [3H]PIA binding (Ki), in words",[8],more potent
"Cn1cnc2c(NC3(C)CCCC3)ncnc21 [Example 5, N^6 -Methylcyclopentyl-9-MA]",antagonist potency at A2 receptor of PC12 cells,[1],reduces potency in PC12 cells
same,"activity at A1 receptors, in words",A1 receptors,reduces activity at A1 receptors
same,receptor selectivity A1 versus A2,[5],selective for receptors
same,antagonist potency at A1 receptors of fat cells,[3],less potent
same,antagonist potency at platelet A2 receptor,[4],less potent than the parent cyclopentyl analog
"CCNC(=O)[C@H]1O[C@@H](n2cnc3c(N)ncnc32)[C@H](O)[C@@H]1O [NECA, 5'-N-ethylcarboxamido-adenosine]","potency at A2 receptors, in words",A2 receptors,more potent than N^6 -substituted analogs at A2 receptors
OC[C@H]1O[C@@H](n2cnc3c(NCc4ccccc4)ncnc32)[C@H](O)[C@@H]1O [N^6 -benzyladenosine],"agonist potency at platelet A2 receptors, in words",[9],more potent of the N^6 -substituted adenosines
same,"affinity/activity at A1 receptors, in words",A1 adenosine receptors,low activity
OC[C@H]1O[C@@H](n2cnc3c(NC4CCC4)ncnc32)[C@H](O)[C@@H]1O [N^6 -cyclobutyl-],"agonist potency at PC12 A2 receptors, in words",[10],more potent of the series
same,"agonist potency at platelet A2 receptors, in words",[9],more potent of the N^6 -substituted adenosines
OC[C@H]1O[C@@H](n2cnc3c(NCCc4ccsc4)ncnc32)[C@H](O)[C@@H]1O [N^6-2-(3-thienylethyl)-],"agonist potency at platelet A2 receptors, in words",[9],more potent of the N^6 -substituted adenosines
"C[C@H](Cc1ccccc1)Nc1ncnc2c1ncn2[C@@H]1O[C@H](CO)[C@@H](O)[C@H]1O [R-PIA, N^6 -R-1-phenyl-2-propyladenosine]","agonist potency at PC12 A2 receptors, in words",[10],more potent of the series
same,"agonist potency at platelet A2 receptors, in words",[9],more potent of the N^6 -substituted adenosines
same,"affinity/activity at A1 receptors, in words",A1 adenosine receptors,very high affinity for A1 adenosine receptors
